Measured values taken from US20230416275A1, “MODULATORS OF CYSTIC FIBROSIS TRANSMEMBRANE CONDUCTANCE REGULATOR” (VERTEX PHARMACEUTICALS INCORPORATED, priority 2020, published 2023).

Experiments:
[1] = molecular target: T1, F508del in NIH 3T3 cells (Homo sapiens, UniProt P13569, DEL508-508); experiment: 3T3 assay: membrane potential optical assay for F508del correction; assay type: cell-based, mouse; details: for EC50 / 3T3 Max Activity (%): F508del NIH 3T3 cells; for EC50: compound incubation 18-24 hours at 37° C., forskolin activation, read-out: 3T3 EC50; for Emax: NIH3T3, F508del NIH 3T3 cells, read-out: 3T3 Max Activity (%); for Emax / 3T3 Max Activity (%): efficacy compared to lumacaftor in combination with acutely added 300 nM Ivacaftor
T1 construct: expressed in transfected cells
T1 sequence (P13569 with tags, fused parts or gaps DEL508-508): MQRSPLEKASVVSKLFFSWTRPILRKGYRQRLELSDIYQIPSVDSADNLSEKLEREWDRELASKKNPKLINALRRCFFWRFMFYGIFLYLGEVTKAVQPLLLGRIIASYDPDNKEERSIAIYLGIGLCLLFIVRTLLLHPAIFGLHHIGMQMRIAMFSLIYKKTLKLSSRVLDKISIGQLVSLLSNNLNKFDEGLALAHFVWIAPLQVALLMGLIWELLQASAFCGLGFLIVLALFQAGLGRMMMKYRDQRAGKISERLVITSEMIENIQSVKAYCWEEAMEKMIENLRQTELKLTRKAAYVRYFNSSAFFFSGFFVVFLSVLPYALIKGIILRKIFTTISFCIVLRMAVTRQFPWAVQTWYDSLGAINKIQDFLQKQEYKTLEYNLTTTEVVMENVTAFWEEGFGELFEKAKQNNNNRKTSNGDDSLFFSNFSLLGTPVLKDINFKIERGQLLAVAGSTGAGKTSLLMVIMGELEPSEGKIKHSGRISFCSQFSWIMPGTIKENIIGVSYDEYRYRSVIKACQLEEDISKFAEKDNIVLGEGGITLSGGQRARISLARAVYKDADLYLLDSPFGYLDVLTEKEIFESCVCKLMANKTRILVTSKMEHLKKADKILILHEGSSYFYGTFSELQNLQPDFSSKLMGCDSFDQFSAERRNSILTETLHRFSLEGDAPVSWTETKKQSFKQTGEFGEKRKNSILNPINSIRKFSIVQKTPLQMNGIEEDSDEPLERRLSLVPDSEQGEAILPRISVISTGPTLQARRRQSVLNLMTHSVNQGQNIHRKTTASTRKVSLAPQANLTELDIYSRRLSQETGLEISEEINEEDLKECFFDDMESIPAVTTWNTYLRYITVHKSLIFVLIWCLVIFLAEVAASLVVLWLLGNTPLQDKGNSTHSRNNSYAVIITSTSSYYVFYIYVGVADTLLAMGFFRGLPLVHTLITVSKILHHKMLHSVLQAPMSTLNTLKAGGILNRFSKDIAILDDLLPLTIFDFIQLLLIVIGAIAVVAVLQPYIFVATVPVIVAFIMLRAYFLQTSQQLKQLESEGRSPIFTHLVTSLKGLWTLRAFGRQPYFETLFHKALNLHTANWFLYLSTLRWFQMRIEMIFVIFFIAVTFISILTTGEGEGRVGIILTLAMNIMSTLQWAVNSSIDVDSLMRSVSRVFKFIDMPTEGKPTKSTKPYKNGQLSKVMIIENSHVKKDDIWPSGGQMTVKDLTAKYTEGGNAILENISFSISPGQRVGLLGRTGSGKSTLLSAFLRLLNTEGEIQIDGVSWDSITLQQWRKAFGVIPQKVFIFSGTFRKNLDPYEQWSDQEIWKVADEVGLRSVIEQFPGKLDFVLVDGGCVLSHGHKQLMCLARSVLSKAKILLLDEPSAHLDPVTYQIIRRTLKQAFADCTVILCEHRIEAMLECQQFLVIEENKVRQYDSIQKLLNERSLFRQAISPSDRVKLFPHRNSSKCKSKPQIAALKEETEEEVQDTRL
Source text: a. Membrane Potential Optical Methods for Assaying F508del Modulation Properties of Compounds
The assay utilizes fluorescent voltage sensing dyes to measure changes in membrane potential using a fluorescent plate reader (e.g., FLIPR III, Molecular Devices, Inc.) as a readout for increase in functional F508del in NIH 3T3 cells. The driving force for the response is the creation of a chloride ion gradient in conjunction with channel activation by a single liquid addition step after the cells have previously been treated with compounds and subsequently loaded with a voltage sensing dye.
b. Identification of Corrector Compounds
To identify correctors of F508del, a single-addition HTS assay format was developed. This HTS assay utilizes fluorescent voltage sensing dyes to measure changes in membrane potential on the FLIPR III as a measurement for increase in gating (conductance) of F508del in F508del NIH 3T3 cells. The F508del NIH 3T3 cell cultures were incubated with the corrector compounds at a range of concentrations for 18-24 hours at 37° C., and subsequently loaded with a redistribution dye. The driving force for the response is a Cl^− ion gradient in conjunction with channel activation with forskolin in a single liquid addition step using a fluorescent plate reader such as FLIPR III.
Bath Solution #1: (in mM) NaCl 160, KCl 4.5, CaCl2 2, MgCl2 1, HEPES 10, pH 7.4 with NaOH.
Chloride-free bath solution: Chloride salts in Bath Solution #1 (above) are substituted with gluconate salts.
NIH3T3 mouse fibroblasts stably expressing F508del are used for optical measurements of membrane potential. The cells are maintained at 37° C. in 5% CO2 and 90% humidity in Dulbecco's modified Eagle's medium supplemented with 2 mM glutamine, 10% fetal bovine serum, 1×NEAA, b-ME, 1× pen/strep, and 25 mM HEPES in 175 cm^2 culture flasks. For all optical assays, the cells were seeded at ˜20,000/well in 384-well Matrigel-coated plates. For the correction assays, the cells are cultured at 37° C. with and without compounds for 16-24 hours.

[2] = molecular target: CFTR-mediated chloride transport in human intestinal epithelial enteroid cells (Homo sapiens, UniProt P13569); experiment: Membrane potential dye, Enteroid Assay A; assay type: cell-based; details: for Ent. A Max Activity (%): % of chloride transport of triple combination control (3 μM N-[(6-amino-2-pyridyl)sulfonyl]-6-(3-fluoro-5-isobutoxy-phenyl)-2-[(4S)-2,2,4-trimethylpyrrolidin-1-yl]pyridine-3-carboxamide, 3 μM tezacaftor, 300 nM acute ivacaftor); for EC50: enteroid cells, 18-24 hours incubation, acute 10 μM forskolin and 300 nM ivacaftor, read-out: Ent. A EC50
Sequence of CFTR-mediated chloride transport in human intestinal epithelial enteroid cells (P13569 with tags, fused parts or gaps DEL508-508): as above
Description: Base medium (ADF+++) consisted of Advanced DMEM/Ham's F12, 2 mM Glutamax, 10 mM HEPES, […] penicillin/streptomycin.
Intestinal enteroid maintenance medium (IEMM) consisted of ADF+++, 1×B27 supplement, 1×N2 supplement, 1.25 mM N-acetyl cysteine, 10 mM Nicotinamide, 50 ng/mL hEGF, 10 nM Gastrin, 1 μg/mL hR-spondin-1, 100 ng/mL hNoggin, TGF-b type 1 inhibitor A-83-01, 100 μg/mL Primocin, 10 μM P38 MAPK inhibitor SB202190.
Bath 1 Buffer consisted of 1 mM MgCl2, 160 mM NaCl, 4.5 mM KCl, 10 mM HEPES, 10 mM Glucose, 2 mM CaCl2.
Chloride Free Buffer consisted of 1 mM Magnesium Gluconate, 2 mM Calcium Gluconate, 4.5 mM Potassium Gluconate, 160 mM Sodium Gluconate, 10 mM HEPES, 10 mM Glucose.
Bath1 Dye Solution consisted of Bath 1 Buffer, 0.04% Pluronic F127, 20 μM Methyl Oxonol, 30 μM CaCCinh-A01, 30 μM Chicago Sky Blue.
Chloride Free Dye Solution consisted of Chloride Free Buffer, 0.04% Pluronic F127, 20 μM Methyl Oxonol, 30 μM CaCCinh-A01, 30 μM Chicago Sky Blue.
Chloride Free Dye Stimulation Solution consisted of Chloride Free Dye Solution, 10 μM forskolin, 100 μM IBMX, and 300 nM Compound III.
Human intestinal epithelial enteroid cells were obtained from the Hubrecht Institute for Developmental Biology and Stem Cell Research, Utrecht, The Netherlands and expanded in T-Flasks as previously described (Dekkers J F, Wiegerinck C L, de Jonge H R, Bronsveld I, Janssens H M, de Winter-de Groot K M, Brandsma A M, de Jong N W M, Bijvelds M J C, Scholte B J, Nieuwenhuis E E S, van den Brink S, Clevers H, van der Ent C K, Middendorp S and M Beekman J M. A functional CFTR assay using primary cystic fibrosis intestinal organoids. Nat Med. 2013 July; 19(7):939-45).
c. Enteroid Cell Harvesting and Seeding
Cells were recovered in cell recovery solution, collected by centrifugation at 650 rpm for 5 minutes at 4° C., resuspended in TrypLE and incubated for 5 minutes at 37° C. Cells were then collected by centrifugation at 650 rpm for 5 minutes at 4° C. and resuspended in IEMM containing 10 μM ROCK inhibitor (RI). The cell suspension was passed through a 40 μm cell strainer and resuspended at 1×10^6 cells/mL in IEMM containing 10 μM RI. Cells were seeded at 5000 cells/well into multi-well plates and incubated for overnight at 37° C., 95% humidity and 5% CO2 prior to assay.
d. Membrane Potential Dye, Enteroid Assay A
Enteroid cells were incubated with test compound in IEMM for 18-24 hours at 37° C., 95% humidity and 5% CO2. […] Briefly, cells were washed 5 times in Bath 1 Buffer. Bath 1 Dye Solution was added, and the cells were incubated for 25 minutes at room temperature. Following dye incubation, cells were washed 3 times in Chloride Free Dye Solution. Chloride transport was initiated by addition of Chloride Free Dye Stimulation Solution and the fluorescence signal was read for 15 minutes. […] Chloride transport was then expressed as a percentage of the chloride transport following treatment with 3 μM N-[(6-amino-2-pyridyl)sulfonyl]-6-(3-fluoro-5-isobutoxy-phenyl)-2-[(4S)-2,2,4-trimethylpyrrolidin-1-yl]pyridine-3-carboxamide, 3 μM (R)-1-(2,2-difluorobenzo[d][1,3]dioxol-5-yl)-N-(1-(2,3-dihydroxypropyl)-6-fluoro-2-(1-hydroxy-2-methylpropan-2-yl)-1H-indol-5-yl)cyclopropanecarboxamide and 300 nM acute N-[2,4-bis(1,1-dimethylethyl)-5-hydroxyphenyl]-1,4-dihydro-4-oxoquinoline-3-carboxamide triple combination control (% Activity).

| Compound | EC50 [1] | Emax [1] | Ent. A Max Activity (%) [2] | EC50 [2] | 3T3 Max Activity (%) [1] |
| --- | --- | --- | --- | --- | --- |
| Cc1cccc(C)c1-c1cc2nc(n1)NS(=O)(=O)c1cccc(c1)NC(=O)c1ccc(Cl)c(c1)O2 [Compound 117] | < 1 µM | > 60% | +++ (+++ is >60%) | 1 to 3 µM |  |
| Cc1cccc(C)c1-c1cc2nc(n1)NS(=O)(=O)c1cccc(c1)NC(=O)[C@@H]1C[C@@H](CN(C(=O)OCCC(C)C)C1)O2 [Compound 8, 3-Methylbutyl (3S,7R)-19-(2,6-dimethylphenyl)-8,15,15-trioxo-2-oxa-15λ^6-thia-5,9,16,18,21-pentaazatetracyclo[15.3.1.13,7.110,14]tricosa-1(21),10(22),11,13,17,19-hexaene-5-carboxylate] | < 1 µM |  | +++ (+++ is >60%) | < 1 µM |  |
| Cc1cccc(C)c1-c1cc2nc(n1)NS(=O)(=O)c1cccc(c1)NC(=O)C1CNCC(C1)O2 (stereo not drawn) [Compound 51] | 3 to 30 µM |  | ++ (++ is 30-60%) | 3 to 30 µM | +++ (+++ is >60%) |
| Cc1cccc(C)c1-c1cc2nc(n1)NS(=O)(=O)c1cccc(c1)NC(=O)Cc1cccc(c1)O2 [Compound 109] | 1 to 3 µM | > 60% | ++ (++ is 30-60%) | 3 to 30 µM |  |
| Cc1cccc(C)c1-c1cc2nc(n1)NS(=O)(=O)c1cccc(c1)NC(=O)[C@@H]1C[C@@H](CN(C(=O)C(C)(C)C)C1)O2 [Compound 46] | < 1 µM | > 60% | +++ (+++ is >60%) | 1 to 3 µM |  |
| Cc1cccc(C)c1-c1cc2nc(n1)NS(=O)(=O)c1cccc(c1)NC(=O)[C@@H]1C[C@H](CN(C(=O)OC(C)(C)C)C1)O2 (single isomer, unassigned) [Compound 3] | 1 to 3 µM | > 60% | + (+ is <30%) | 1 to 3 µM |  |
| Cc1ccc2cc1Oc1cc(-c3c(C)cccc3C)nc(n1)NS(=O)(=O)c1cccc(c1)NC2=O [Compound 57, 5-(2,6-Dimethylphenyl)-20-methyl-2-oxa-9λ^6-thia-6,8,15,23-tetraazatetracyclo[15.3.1.13,7.110,14]tricosa-1(21),3(23),4,6,10,12,14(22),17,19-nonaene-9,9,16-trione] | < 1 µM | > 60% | ++ (++ is 30-60%) | < 1 µM |  |
| Cc1cccc(C)c1-c1cc2nc(n1)NS(=O)(=O)c1cccc(c1)NC(=O)[C@@H]1CNC[C@@H](C1)O2 [Compound 50] |  | < 30% | + (+ is <30%) |  |  |
| COCCN1C[C@@H]2C[C@H](C1)C(=O)Nc1cccc(c1)S(=O)(=O)Nc1nc(cc(-c3c(C)cccc3C)n1)O2 [Compound 7, (3S,7R)-19-(2,6-Dimethylphenyl)-5-(2-methoxyethyl)-2-oxa-15λ^6-thia-5,9,16,18,21-pentaazatetracyclo[15.3.1.13,7.110,14]tricosa-1(21),10(22),11,13,17,19-hexaene-8,15,15-trione] | < 1 µM | > 60% | +++ (+++ is >60%) | 1 to 3 µM |  |
| Cc1cccc(C)c1-c1cc2nc(n1)NS(=O)(=O)c1cccc(c1)NC(=O)c1cc(Cl)cc(c1)O2 [Compound 118] | < 1 µM | > 60% | +++ (+++ is >60%) | 1 to 3 µM |  |
| Cc1cccc(C)c1-c1cc2nc(n1)NS(=O)(=O)c1cccc(c1)NC(=O)C1CNCC(C1)O2 (stereo not drawn) [Compound 52] |  |  | + (+ is <30%) | 3 to 30 µM | + (+ is <30%) |
| Cc1cccc(C)c1-c1cc2nc(n1)NS(=O)(=O)c1cccc(c1)NC(=O)[C@H]1CCC[C@H](C1)O2 (single isomer, unassigned) [Compound 71, 5-(2,6-dimethylphenyl)-9,9-dioxo-2-oxa-9λ^6-thia-6,8,15,23-tetraazatetracyclo[15.3.1.13,7.110,14]tricosa-3,5,7(23),10(22),11,13-hexaen-16-one] | 1 to 3 µM |  | +++ (+++ is >60%) | 1 to 3 µM | +++ (+++ is >60%) |
| Cc1cccc(C)c1-c1cc2nc(n1)NS(=O)(=O)c1cccc(c1)NC(=O)[C@H]1C[C@H](CN(C(=O)NC(C)(C)C)C1)O2 [Compound 43] | 3 to 30 µM | > 60% | + (+ is <30%) |  |  |
| Cc1ccc2cc1C(=O)Nc1cccc(c1)S(=O)(=O)Nc1nc(cc(-c3c(C)cccc3C)n1)O2 [Compound 111] | < 1 µM | > 60% | ++ (++ is 30-60%) | 3 to 30 µM |  |
| Cc1cccc(C)c1-c1cc2nc(n1)NS(=O)(=O)c1cccc(c1)NC(=O)[C@H]1CNC[C@H](C1)O2 [Compound 49] | 1 to 3 µM | > 60% | + (+ is <30%) |  |  |
| Cc1cccc(C)c1-c1cc2nc(n1)NS(=O)(=O)c1cccc(c1)NC(=O)[C@@H]1C[C@@H](CN(CC(C3CC3)C3CC3)C1)O2 [Compound 24] | < 1 µM | > 60% | ++ (++ is 30-60%) | < 1 µM |  |
| Cc1cccc(C)c1-c1cc2nc(n1)NS(=O)(=O)c1cccc(c1)NC(=O)C1CC(CN(C(=O)OC(C)(C)C)C1)O2 (stereo not drawn) [Compound 124] | 1 to 3 µM |  | ++ (++ is 30-60%) | 3 to 30 µM | +++ (+++ is >60%) |
| Cc1cccc(C)c1-c1cc2nc(n1)NS(=O)(=O)c1cccc(c1)NC(=O)[C@@H]1C[C@@H](CN(C(=O)OC(C)(C)C)C1)O2 (single isomer, unassigned) [Compound 2] | < 1 µM | > 60% | +++ (+++ is >60%) | < 1 µM |  |
